How the values were obtained:
Assay type in all cases: cell-based
[1] = system: MDA-MB-231 3-D organoids; assay: Longitudinal exposure of MDA-MB-231 3-D organoids to cytotoxic drugs; conditions: 100 nM, 3D culture spheroids
Procedure: (§1) FIG. 1: Right: Longitudinal exposure of MDA-MB-231 3-D organoids and 2-D cultures to cytotoxic drugs (100 nM). […] Left: H&E staining of day-15 drug-refractory MDA-MB-231 organoids and respective control.
(§2) Viability is determined by methods known in the art. A preferred method to determine cell viability is the measurement of bioluminescence in cells stably transfected with the luciferase expression vector upon addition of the luciferase substrate. An alternative method to determine cell viability is the measurement of fluorescence in cells stably transfected with the expression vectors of fluorescent protein (e.g. GFP or RFP). Alternatively, the cell viability can be measured by ATP-based assays; for example the Cell-Titer Glow assay. Alternatively, the cell viability can be measured by colorimetric assays, for example the MTT assay. Alternatively, cell viability can be measured by conventional or automated microscopy methods as determined by the size and shape of the cancer organoids. Alternatively, cell viability can be measured by assays measuring mitochondrial function such as the BH3 profiling assay. […]

[2] = system: breast cancer patient-derived 3-D organoids; assay: Regrowth of breast cancer patient-derived 3-D organoids after docetaxel washout; conditions: 100 nM for 10 days, then 8 weeks after washout
Procedure: FIG. 11: Breast cancer patient-derived 3-D organoids treated with DMSO-control (left) or 100 nM Docetaxel (center) for 10 days, and 8 weeks after docetaxel washout (right).

[3] = system: MDA-MB-231 2-D cultures; assay: Longitudinal exposure of MDA-MB-231 2-D cultures to cytotoxic drugs; conditions: 100 nM, 2D culture
Procedure: as §1, §2

[4] = system: drug-refractory prostate cancer 3-D organoids; assay: Re-exposure of drug-refractory prostate cancer 3-D organoids to afatinib and vinblastine; conditions: re-exposed to afatinib and vinblastine (100 nM) 5 days after first exposure drug-washout
Procedure: FIG. 10: Afatinib-refractory and vinblastine-refractory prostate cancer 3-D organoids longitudinally exposed to afatinib and vinblastine (100 nM) 5 days after the first exposure drug-washout.

[5] = system: prostate cancer patient-derived 3-D organoids; assay: Exposure of prostate cancer patient-derived 3-D organoids to cytotoxic drugs; conditions: 100 nM, 3D conditions with Wnt-stimulator R-spondin, in vitro
Procedure: FIG. 2. Left: Exposure of prostate cancer patient-derived 3-D organoids, cultured in 3D conditions in the presence of Wnt-stimulator R-spondin, to cytotoxic drugs (100 nM; vinblastine highlighted with red) and validation of vinblastine response in the respective patient-derived xenograft (PDX) model. […] Right: Histological similarities of in-vitro vs. in-vivo drug-refractory malignant foci.
as §2

Row | Structure (SMILES) | cell killing (viability curve) [1] | regrowth of drug-refractory organoids after drug washout [2] | cell killing (viability curve) [3] | cross-resistance of organoids refractory to the named drug [4] | cell viability curve [5]
1 | CC(=O)O[C@@]12CO[C@@H]1C[C@H](O)[C@@]1(C)C(=O)[C@H](O)C3=C(C)[C@@H](OC(=O)[C@H](O)[C@@H](NC(=O)OC(C)(C)C)c4ccccc4)C[C@@](O)([C@@H](OC(=O)c4ccccc4)[C@H]21)C3(C)C [docetaxel] | only a fraction of the cells | ability of drug-refractory organoid to regenerate fully-grown organoids | kills virtually all the cells |  | 
2 | CC[C@]1(O)C[C@@H]2CN(CCc3c([nH]c4ccccc34)[C@@](C(=O)OC)(c3cc4c(cc3OC)N(C)[C@H]3[C@@](O)(C(=O)OC)[C@H](OC(C)=O)[C@]5(CC)C=CCN6CC[C@]43[C@@H]65)C2)C1 [vinblastine] |  |  |  | cross-resistance | cell viability curve plateauing

Reference: patent US20200063108A1, “THREE-DIMENSIONAL TISSUE STRUCTURES” (Dana-Farber Cancer Institute, Inc., priority 2017, published 2020)
